Experimental findings from patent publication US6344473B1, “Imidazoles useful as nitric oxide synthase inhibitors” (G.D. Searle & Co., priority 2000, dated 2002) are described below.

The structures appear in SMILES notation. Counter-ions that a name gives are not always drawn.

For assay [1], the system named is plasma nitrites induced by endotoxin (LPS). Put plainly: Low Dose LPS in vivo low-endotoxin assay (plasma nitrites). Conditions: mouse.
The target in another assay is hecNOS (Homo sapiens, UniProt P29474). Briefly: Citrulline assay for nitric oxide synthase, human in vitro enzyme data, hecNOS. It counts as biochemical. The following applies: human endothelial constitutive NOS.
The next assay has as its target hncNOS (Homo sapiens, UniProt P29475). Briefly: Citrulline assay for nitric oxide synthase, human in vitro enzyme data, hncNOS. It counts as biochemical. The following applies: human neuronal constitutive NOS.
The target in the next assay is hiNOS (Homo sapiens, UniProt P35228). Put plainly: Citrulline assay for nitric oxide synthase, human in vitro enzyme data, hiNOS. It counts as biochemical. The following applies: human inducible NOS.

Take `Cc1noc(=O)n1CCCCC(N)C(=O)O` (centres unmarked) [Example 2, αS-amino-4,5-dihydro-3-methyl-5-oxo-1,2,4-oxadiazole-4-hexanoic acid, monohydrochloride]: the “Low Dose LPS in vivo Effective Dose (p.o.), inhibition” value in assay [1] (3 mg/kg/day p.o.) came out at 39% inh; in assay [1] (10 mg/kg/day p.o.), 42% inh.

Take `CCOC(=O)[C@@H](N)CCCCn1c(C)noc1=O` [Example 3, ethyl αS-amino-4,5-dihydro-3-methyl-5-oxo-1,2,4-oxadiazole-4-hexanoate, monohydrochloride]: the half-maximal inhibitory concentration (IC50) came to 1430 µM against hecNOS, 200 µM against hncNOS and 124 µM at hiNOS.

In the case of `Cc1noc(=O)n1CCCC[C@H](NC(=O)OC(C)(C)C)C(=O)O` [Example 1, αS-[[(1,1-dimethylethoxy)carbonyl]amino]-4,5-dihydro-3-methyl-5-oxo-1,2,4-oxadiazole-4-hexanoic acid], the IC50 on hecNOS, at hncNOS and against hiNOS was > 1000 µM in each case.

As a reminder, the IC50 is the concentration needed to halve the response being measured. Low readings indicate greater potency, high ones weaker potency.
